Data: PubChem BioAssay AID328 (DTP/NCI, 2004)
Several values for one entry are separate records, joined by “and”; a condition that tells them apart may be missing. Identical values can stand only once. Inconclusive results and toxic doses are left out. The calls were made as follows: active = survival T/C of 150% or more; inactive = T/C below 125% in these data.

Test system: BDF1 mice, P388 leukemia ip, median survival T/C
Assay: NCI In Vivo Anticancer Drug Screen. Data for tumor model P388 Leukemia (intraperitoneal) in B6D2F1 (BDF1) mice
Conditions: endpoint: median survival time, higher = longer survival
Summary of the method: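 Survival ratio, drug arm over vehicle arm, in mice with a transplanted tumour.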

[1] = dose: 100.0 mg/kg/injection, schedule: Q01DX009 (ip), vehicle: saline with Tween-80
[2] = dose: 200.0 mg/kg/injection, schedule: Q01DX009 (ip), vehicle: saline with Tween-80
[3] = dose: 50.0 mg/kg/injection, schedule: Q01DX009 (ip), vehicle: saline with Tween-80
[4] = dose: 100.0 mg/kg/injection, schedule: Q01DX001 (ip), vehicle: Klucel (hydroxypropylcellulose) (HPC)
[5] = dose: 200.0 mg/kg/injection, schedule: Q01DX001 (ip), vehicle: Klucel (hydroxypropylcellulose) (HPC)
[6] = dose: 400.0 mg/kg/injection, schedule: Q01DX001 (ip), vehicle: Klucel (hydroxypropylcellulose) (HPC)
[7] = dose: 100.0 mg/kg/injection, schedule: Q01DX005 (ip), vehicle: saline with Tween-80
[8] = dose: 200.0 mg/kg/injection, schedule: Q01DX005 (ip), vehicle: saline with Tween-80

Measured: T/C

CC12CCC3(CC1CCC(OC(=O)c1ccccc1)C2)OCCO3 (centres undefined)
inactive: dose: 22.0 mg/kg/injection, schedule: Q01DX009 (ip), vehicle: other 109 % of control | dose: 33.0 mg/kg/injection, schedule: Q01DX009 (ip), vehicle: other 109 % of control | dose: 44.0 mg/kg/injection, schedule: Q04DX003 (ip), vehicle: other 100 % of control | dose: 50.0 mg/kg/injection, schedule: Q01DX009 (ip), vehicle: other 109 % of control | dose: 66.0 mg/kg/injection, schedule: Q04DX003 (ip), vehicle: other 109 % of control | dose: 75.0 mg/kg/injection, schedule: Q01DX009 (ip), vehicle: other 109 % of control | dose: 100.0 mg/kg/injection, schedule: Q04DX003 (ip), vehicle: other 100 % of control | dose: 150.0 mg/kg/injection, schedule: Q04DX003 (ip), vehicle: other 100 % of control | dose: 200.0 mg/kg/injection, schedule: Q01DX009 (ip), vehicle: other 109 % of control | dose: 200.0 mg/kg/injection, schedule: Q04DX003 (ip), vehicle: other 109 % of control | dose: 400.0 mg/kg/injection, schedule: Q01DX009 (ip), vehicle: other 104 % of control | dose: 400.0 mg/kg/injection, schedule: Q04DX003 (ip), vehicle: other 109 % of control

O=C(Cn1ccc(=O)[nH]c1=O)c1ccc(Cl)s1
inactive: [1] 101 % of control and 112 % of control | [2] 102 % of control and 105 % of control | dose: 400.0 mg/kg/injection, schedule: Q01DX009 (ip), vehicle: saline with Tween-80 101 % of control and 115 % of control

CC(C)(/C=C/c1ccccc1)C(=O)O
inactive: [3] 95 % of control | [1] 102 % of control | [2] 100 % of control

CCCCCC(Br)C(Br)CC(Br)C(Br)CCCCCCCC(=O)O (centres undefined)
inactive: [4] 100 % of control | [5] 109 % of control | [6] 104 % of control

CC1CCCCC1O (centres undefined)
inactive: [3] 100 % of control and 109 % of control | [1] 93 % of control and 109 % of control | [2] 111 % of control and 95 % of control

CS(=O)(=O)Nc1ccc(NS(C)(=O)=O)cc1
inactive: dose: 100.0 mg/kg/injection, schedule: Q01DX001 (ip), vehicle: saline with Tween-80 112 % of control | dose: 200.0 mg/kg/injection, schedule: Q01DX001 (ip), vehicle: saline with Tween-80 100 % of control | dose: 400.0 mg/kg/injection, schedule: Q01DX001 (ip), vehicle: saline with Tween-80 100 % of control

COc1ccc(C(N)C(=O)O)cc1 (centres undefined)
inactive: [4] 100 % of control | [5] 109 % of control | [6] 109 % of control

COc1cc(-c2ccc(N=Nc3c(O)c(C(=O)Nc4ccccc4OC)cc4ccccc34)c(OC)c2)ccc1N=Nc1c(O)c(C(=O)Nc2ccccc2OC)cc2ccccc12
inactive: [7] 97 % of control | [8] 92 % of control

CCCCCCCCCCCC[N+](C)(C)CC(O)C[N+](C)(C)CCCCCCCCCCCC
inactive: dose: 3.13 mg/kg/injection, schedule: Q01DX009 (ip), vehicle: saline 102 % of control | dose: 6.25 mg/kg/injection, schedule: Q01DX009 (ip), vehicle: saline 107 % of control

O=C(NC(=S)N1CC1)c1ccccc1
inactive: [3] 93 % of control | [1] 92 % of control | [2] 104 % of control

NC(=O)c1csc(C2OC(CO)C(O)C2O)n1 (centres undefined)
active: dose: 330.0 mg/kg/injection, schedule: Q01DX009 (ip), vehicle: water 213 % of control | dose: 500.0 mg/kg/injection, schedule: Q01DX009 (ip), vehicle: water 243 % of control | dose: 750.0 mg/kg/injection, schedule: Q01DX009 (ip), vehicle: water 277 % of control

CC1(C)OC2(C)CCC1C(O)C2N1CCOCC1 (centres undefined)
inactive: dose: 50.0 mg/kg/injection, schedule: Q01DX005 (ip), vehicle: saline with Tween-80 106 % of control | [7] 106 % of control | [8] 101 % of control

CC(=O)Nc1ccc2c3c(ccc([N+](=O)[O-])c13)CC2
inactive: dose: 100.0 mg/kg/injection, schedule: Q01DX009 (ip), vehicle: saline 90 % of control | dose: 200.0 mg/kg/injection, schedule: Q01DX009 (ip), vehicle: saline 95 % of control

CC(C)(C)c1ccc(Sc2cccc3c2C(=O)c2ccccc2C3)cc1
inactive: [3] 92 % of control | [1] 89 % of control | [2] 89 % of control

O=C(N=Nc1c(O)[nH]c2ccccc12)C(=O)Nc1cccc(C(F)(F)F)c1
inactive: [3] 87 % of control
